Measurements as given in patent US5763469A, “Substituted cyclic ureas and derivatives thereof useful as retroviral protease inhibitors” (The DuPont Merck Pharmaceutical Company, priority 1996, dated 1998).
≈ marks a conversion by molar mass, not a printed value.

Tested on: HIV-1 (RF)
Experiment: HIV RNA assay: microplate based compound evaluation in HIV-1 infected MT-2 cells
Format: cell-based
Details: Human immunodeficiency virus 1, MT2, 72 h; HIV-1 (RF) infected MT-2 cells, 3 days of culture; virus dilutions were selected to give this value (standardisation of inoculum); read-out: IC90 value (concentration of compound required to reduce the HIV RNA level by 90%)
Protocol: MT-2, CEM, and H9 cells were maintained in RPMI 1640 supplemented with 5% fetal calf serum (FCS), 2 mM L-glutamine and 50 μg/mL gentamycin, all from Gibco. Laboratory strains of HIV-1 (RF, MN and IIIB) were propagated in H9 cells in the same medium. Virus stocks were prepared approximately 1 month after acute infection of H9 cells by clarification of the tissue culture medium and storage of aliquots at -70° C. Infectious titers of HIV-1 (RF) stocks were 1-3×10^7 PFU (plaque forming units)/mL as measured by plaque assay on MT-2 cells (see below). Each aliquot of virus stock used for infection was thawed only once. […]
Cell lysates or purified RNA in 3M or 5M GED were mixed with 5M GED and capture probe to a final guanidinium isothiocyanate concentration of 3M and a final biotin oligonucleotide concentration of 30 nM. […] Immobilized alkaline phosphatase activity was detected by addition of 100 μL of 0.2 mM 4-methylumbelliferyl phosphate (MUBP, JBL Scientific) in buffer δ(2.5M diethanolamine pH 8.9 (JBL Scientific), 10 mM MgCl2, 5 mM zinc acetate dihydrate and 5 mM N-hydroxyethyl-ethylene-diamine-triacetic acid). […] Fluorescence at […] was measured using a microplate fluorometer (Dynateck) exciting at 365 nm.
Compounds to be evaluated were dissolved in DMSO and diluted in culture medium to twice the highest concentration to be tested and a maximum DMSO concentration of 2%. […]

Compound: Nc1ccn([C@H]2CC[C@@H](CO)O2)c(=O)n1 [ddC, dideoxycytidine]
- IC90: 0.2 µg/mL (≈ 0.947 µM)
